# Measurements published in US6375979B2 (Somerset Pharmaceuticals, Inc., priority 1995, dated 2002).
# “And” between values parts separate entries of the source, which are not always exact repeats. Equal entries are not always repeated. Where two headings read alike, the source gives them in different places.
# Key:
# [1] = test system: cultured embryonic mesencephalic cells; experiment: Neuronal survival: [3H]dopamine uptake by cultured mesencephalic cells; assay type: cell-based, rat
# Source text: The amount of uptake by the cultured brain cells corresponds to axonal growth.
# [2] = molecular target: T1, dopamine re-uptake system (Rattus norvegicus, UniProt P23977); experiment: Inhibition of dopamine re-uptake in rat neostriatal synaptosome preparation; assay type: biochemical
# T1 construct: (synaptosome preparation) was obtained form fresh rat neostriatal brain tissue; from tissue; host or cells: rat neostriatum, synaptosome preparation
# Procedure: An in vitro nerve terminal preparation (synaptosome preparation) was prepared using fresh rat neostriatal tissue.
# FIG. 19: Determination of IC50 Values for Inhibition of Dopamine Re-Uptake.
# An in vitro nerve-terminal preparation (synaptosome preparation) was obtained form fresh rat neostriatal brain tissue. Transport by dopamine nerve-terminals was estimated by measuring the uptake of tritiated dopamine.
# interleukin-2 production = experiment: Concanavalin A-induced interleukin-2 production by spleen cells of treated old rats; assay type: in vivo, rat; conditions: ip daily 60 days
# Procedure: The present experiments utilized a rat model to examine the ability of R(−)DMS and S(+)DMS to restore immunological function. Rats were divided into the following experimental groups:
# (§1) Rats were administered saline or test agent ip, daily for 60 days. They were then maintained for an additional “wash out” period of 10 days during which time no treatment was given. At the end of this time, animals were sacrificed and their spleens were removed. The spleen cells were then assayed for a variety of factors which are indicative of immune system function. Specifically, standard tests were employed to determine the following:
# 2) in vitro concanavalin A-induced production of interleukin-2;
# γ-interferon production = γ-interferon production by concanavalin A-stimulated spleen cells of treated old rats; assay type: in vivo, rat; conditions: old rats, ip daily 60 days; 1.0 mg/kg (for DMS enantiomers)
# Procedure: Rats were divided into the following experimental groups:
# as §1
# 1) in vitro production of γ-interferon by concanavalin A-stimulated spleen cells;
# MAO-A [3] = molecular target: T2, MAO-A (Rattus norvegicus, UniProt P21396)
# T2 sequence (P21396 1-526): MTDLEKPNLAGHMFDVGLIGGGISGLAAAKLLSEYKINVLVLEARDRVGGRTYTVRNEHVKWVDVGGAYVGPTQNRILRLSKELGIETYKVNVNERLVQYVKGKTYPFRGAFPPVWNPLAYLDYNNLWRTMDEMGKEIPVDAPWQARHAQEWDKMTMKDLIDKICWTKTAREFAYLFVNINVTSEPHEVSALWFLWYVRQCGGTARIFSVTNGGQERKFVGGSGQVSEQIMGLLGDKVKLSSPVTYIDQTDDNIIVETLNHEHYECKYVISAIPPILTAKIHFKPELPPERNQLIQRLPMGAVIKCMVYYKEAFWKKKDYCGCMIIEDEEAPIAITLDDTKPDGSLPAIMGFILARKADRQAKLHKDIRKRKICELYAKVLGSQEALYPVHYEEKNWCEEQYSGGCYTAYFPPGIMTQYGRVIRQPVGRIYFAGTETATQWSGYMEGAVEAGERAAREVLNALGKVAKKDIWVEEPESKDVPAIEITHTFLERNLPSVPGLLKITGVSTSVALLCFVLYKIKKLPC
# [4] = test system: cultured rat mesencephalic cells exposed to NMDA; experiment: NMDA model of cell death: TH immunochemistry; conditions: 50 μM, 100 μM NMDA exposure
# Procedure: Rat mesencephalic cell cultures were exposed to 100 μM NMDA and incubated as described above in connection with FIG. 16.
# [5] = test system: cultured rat mesencephalic cells exposed to NMDA; experiment: NMDA model of cell death: [3H]-dopamine uptake; conditions: 50 μM, 100 μM NMDA exposure
# [6] = test system: cultured rat mesencephalic cells; experiment: Medium change (glutamate receptor dependent) model of cell death: TH positive cells
# Procedure: (§2) In these experiments, cells were plated and allowed to stabilize for several days.
# [7] = test system: cultured rat mesencephalic cells; experiment: Medium change (glutamate receptor dependent) model of cell death: [3H]-dopamine uptake; conditions: for neuron protection by measurement of dopamine uptake (FIG. 15): glutamate receptor dependent model
# Procedure: Preparations are then added to 10 ml Ecoscint (National Diagnostics) and counted in a scintillation spectrometer.
# as §2
# [8] = test system: TH positive cells in cultured E-14 embryonic mesencephalic cells
# MAO-A [9] = molecular target: T3, MAO-A (Cavia porcellus, UniProt H0UVA2); experiment: MAO-A inhibition in guinea pig hippocampal homogenates in vitro; assay type: biochemical; design: by human platelets and/or guinea pig hippocampal homogenates; from tissue; host or cells: guinea pig hippocampus homogenate
# T3 sequence (H0UVA2 1-461): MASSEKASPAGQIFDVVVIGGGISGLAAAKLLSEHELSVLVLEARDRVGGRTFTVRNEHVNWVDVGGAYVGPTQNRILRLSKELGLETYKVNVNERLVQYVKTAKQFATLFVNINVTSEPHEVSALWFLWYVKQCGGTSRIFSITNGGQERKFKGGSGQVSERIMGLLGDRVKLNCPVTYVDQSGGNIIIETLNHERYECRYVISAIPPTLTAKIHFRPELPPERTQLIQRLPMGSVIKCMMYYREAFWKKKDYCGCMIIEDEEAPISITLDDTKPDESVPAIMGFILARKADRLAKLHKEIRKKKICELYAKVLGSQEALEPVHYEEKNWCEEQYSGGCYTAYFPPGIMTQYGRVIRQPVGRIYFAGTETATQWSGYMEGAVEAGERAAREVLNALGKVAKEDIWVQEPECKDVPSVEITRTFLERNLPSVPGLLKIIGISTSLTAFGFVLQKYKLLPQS
# Source text: Human platelet MAO is comprised exclusively of the type-B isoform of the enzyme. […] The present study also examined the two enantiomers of DMS for inhibitory activity with respect to the MAO-A and MAO-B in guinea pig hippocampal tissue. Guinea pig brain tissue is an excellent animal model for studying brain dopamine metabolism, the enzyme kinetics of the multiple forms of MAO and the inhibitory properties of novel agents that interact with these enzymes. The multiple forms of MAO in this animal species show similar kinetic properties to those found in human brain tissue. Finally, the test agents were administered to guinea pigs and the extent to which they might act as inhibitors of brain MAO in vivo was assessed.
# In vitro: The test system utilized the in vitro conversion of specific substrates of MAO-A (^14C-serotonin) and MAO-B (^14C-phenylethylamine) by human platelets and/or guinea pig hippocampal homogenates. […] A percent inhibition was calculated from these values.
# [10] = 1.0 mg/kg (for DMS enantiomers)
# [11] = 50 μM, medium change model, listed as Deprenyl
# T1 sequence (P23977 whole entry): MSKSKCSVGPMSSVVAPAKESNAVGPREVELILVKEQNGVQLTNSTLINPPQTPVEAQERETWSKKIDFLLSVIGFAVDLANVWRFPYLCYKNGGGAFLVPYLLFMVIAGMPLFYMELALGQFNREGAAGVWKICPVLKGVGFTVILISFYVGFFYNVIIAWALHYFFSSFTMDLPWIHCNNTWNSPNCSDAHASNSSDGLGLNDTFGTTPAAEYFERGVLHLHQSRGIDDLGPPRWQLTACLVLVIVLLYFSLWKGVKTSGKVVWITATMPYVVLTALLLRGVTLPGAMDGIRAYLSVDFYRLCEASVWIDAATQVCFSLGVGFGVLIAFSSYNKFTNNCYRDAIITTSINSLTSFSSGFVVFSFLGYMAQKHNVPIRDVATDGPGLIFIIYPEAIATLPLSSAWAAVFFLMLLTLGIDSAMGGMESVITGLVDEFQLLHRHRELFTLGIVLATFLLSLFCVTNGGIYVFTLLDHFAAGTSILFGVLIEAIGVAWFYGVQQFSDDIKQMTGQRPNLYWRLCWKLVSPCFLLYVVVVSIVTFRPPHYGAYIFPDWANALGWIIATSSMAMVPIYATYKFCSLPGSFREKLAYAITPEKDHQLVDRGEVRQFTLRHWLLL
smiles,measurement,setting,value
"C#CCN(C)[C@H](C)Cc1ccccc1 [Selegiline, R-(−)-N-methyl-N-(prop-2-ynyl)-2-aminophenylpropane, reference compound]","3H-Dopamine Uptake, % Cont",[1]; 0.5 μM,120.6%
same,"3H-Dopamine Uptake, Mean",[1]; 0.5 μM,14452 ± 212
same,"3H-Dopamine Uptake, % Cont",[1]; 5 μM,137.5%
same,"3H-Dopamine Uptake, Mean",[1]; 5 μM,16468 ± 576
same,"3H-Dopamine Uptake, % Cont",[1]; 50 μM,275.5%
same,"3H-Dopamine Uptake, Mean",[1]; 50 μM,33018 ± 1317
same,"3H-Dopamine uptake, % Reduction x ± SEM",[2]; 1 μM,13.9 ± 4.7%
same,"3H-Dopamine uptake, % Reduction x ± SEM",[2]; 10 μM,16.3 ± 3.8%
same,"3H-Dopamine uptake, % Reduction x ± SEM",[2]; 100 μM,7.0 ± 3.6%
same,"3H-Dopamine uptake, % Reduction x ± SEM",[2]; 100 μM (last row of each agent),59.8 ± 1.0%
same,IL-2 % control,interleukin-2 production; [10],376%
same,IL-2 U/ml mean,interleukin-2 production; [10],73.78 U/ml
same,IL-2 U/ml mean,interleukin-2 production; […] (for R(−)DMS by group order),109.6 U/ml
same,IFN-γ % control,γ-interferon production,550%
same,IFN-γ U/ml mean,γ-interferon production,1934 U/ml
same,inhibition,MAO-A [3]; 0.3 µM,9.75%
same,inhibition,MAO-A [3]; 1 μM,32.5%
same,inhibition,MAO-A [3]; 3 µM,65.5%
same,inhibition,MAO-A [3]; 10 μM,97.8%
same,"TH Immunochemistry, % control, Mean",[4],234.3%
same,"TH Immunochemistry, cells/cm^2, Mean",[4],220.63 cells/cm^2
same,"TH Immunochemistry, % control, individual cultures",[4]; listed as Deprenyl,244.2% and 305.3% and 199.1% and 188.5%
same,"TH Immunochemistry, cells/cm^2, individual cultures",[4]; listed as Deprenyl,230.0 cells/cm^2 and 287.5 cells/cm^2 and 187.5 cells/cm^2 and 177.5 cells/cm^2
same,"Dopamine uptake, % control, Mean",[5],257.4%
same,"Dopamine uptake, counts/min, Mean",[5],17393.8 counts/min
same,"Dopamine uptake, % control, individual cultures",[5]; listed as Deprenyl,228.1% and 273.5% and 251.0% and 259.8% and 274.9%
same,"Dopamine uptake, counts/min, individual cultures",[5]; listed as Deprenyl,15410 counts/min and 18479 counts/min and 16958 counts/min and 17550 counts/min and 18572 counts/min
same,"TH Immunochemistry, % control, Mean","[6]; 50 μM, medium change model",130.6%
same,"TH Immunochemistry, cells/cm^2, Mean","[6]; 50 μM, medium change model",344.17 cells/cm^2
same,"TH Immunochemistry, % control, individual cultures",[6]; [11],146.0% and 124.2% and 121.4%
same,"TH Immunochemistry, cells/cm^2, individual cultures",[6]; [11],385.0 cells/cm^2 and 327.5 cells/cm^2 and 320.0 cells/cm^2
same,survival of dopaminergic neurons (FIGS. 11 and 12),"[6]; 0.5, 5.0 or 50 μM, 4 days of daily medium changes, TH staining and dopamine uptake",promotes the survival of dopaminergic neurons
same,neuron protection by measurement of dopamine uptake (FIG. 15),[7]; 50 μM,neuron protection
same,"Dopamine uptake, % control, Mean","[7]; 50 μM, medium change model",170.1%
same,"Dopamine uptake, counts/min, Mean","[7]; 50 μM, medium change model",35714 counts/min
same,"Dopamine uptake, % control, individual cultures",[7]; [11],181.2% and 162.6% and 175.3% and 161.3%
same,"Dopamine uptake, counts/min, individual cultures",[7]; [11],38053 counts/min and 34130 counts/min and 36810 counts/min and 33863 counts/min
same,"Survival of TH positive cells, % cont.",[8]; 0.5 μM,185.81%
same,"Survival of TH positive cells, Mean cells/cm^2",[8]; 0.5 μM,201.70 ± 25.01 cells/cm^2
same,"Survival of TH positive cells, % cont.",[8]; 5 μM,218.33%
same,"Survival of TH positive cells, Mean cells/cm^2",[8]; 5 μM,237.00 ± 12.59 cells/cm^2
same,"Survival of TH positive cells, % cont.",[8]; 50 μM,269.25%
same,"Survival of TH positive cells, Mean cells/cm^2",[8]; 50 μM,292.28 ± 17.41 cells/cm^2
same,IC50,MAO-A [9],2.5 µM
same,inhibition at 0.3 µM,"MAO-A [9]; 300 nM, guinea pig hippocampus, read-out: MAO-A % Inhibition x = SEM",11.9 ± 2.4%
same,inhibition at 1 µM,"MAO-A [9]; 1 μM, guinea pig hippocampus, read-out: MAO-A % Inhibition x = SEM",22.1 ± 1.2%
same,inhibition at 3 µM,"MAO-A [9]; 3 μM, guinea pig hippocampus, read-out: MAO-A % Inhibition x = SEM",53.5 ± 2.7%
same,reduction in potency compared to selegiline (value in parentheses),"MAO-A [9]; MAO-A IC50, guinea pig hippocampal cortex",1
"C#CCN(C)Cc1ccccc1 [Pargyline, pargyline, reference compound]",neuron protection by measurement of dopamine uptake (FIG. 15),"[7]; at the concentrations used (0.5, 5 and 50 μM)",did not appear to offer any protection
"C#CCN(C)CCCOc1ccc(Cl)cc1Cl [clorgyline, reference compound]",neuron protection by measurement of dopamine uptake (FIG. 15),[7]; 50 μM,protected
"C[C@]12N[C@H](Cc3ccccc31)c1ccccc12 [MK-801, reference compound]",neuron protection by measurement of dopamine uptake (FIG. 15),[7]; 10 μM,protection was also obtained
"NCCc1ccc(O)c(O)c1 [Dopamine, dopamine, reference compound]","3H-Dopamine uptake, % Reduction x ± SEM",[2]; 1 μM,52.0 ± 4.9%
same,"3H-Dopamine uptake, % Reduction x ± SEM",[2]; 10 μM,80.9 ± 0.4%
